The record followed here is PubChem BioAssay AID179 (DTP/NCI, 2004).

The test system of this assay is CEM cells HIV-1 protection, formazan growth assay. Description: NCI AIDS Antiviral Assay. Particulars: for IC50: measured here: growth of uninfected CEM cells. The essentials:
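Soluble formazan readout of cell growth; CEM cells ± HIV-1; 5 drug concs. ≥50% protection → retest; ≥50% again = moderately active; reproducible 100% = confirmed active.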

The source made the active and inactive calls.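 How the source made its calls: active means compounds giving half or more protection of infected cells from virus-caused growth loss, again on retest; inactive means the rest.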

In the case of `COC1=CC(=Nc2c(Cl)cc(Cl)cc2OC(=O)c2ccc([N+](=O)[O-])cc2)C=C(OC)C1=O`, the result was inactive. Same read-out and setting: under `CCOP(=O)(OCC)C(Nc1ccc(Br)cc1)c1cccc([N+](=O)[O-])c1` (stereo unspecified) stands “inactive”. In the case of `O=c1[nH]c(=O)n(C2CC(O)C(CO)O2)cc1COCC(F)(F)F` (stereo unspecified), the EC50 is over 251 µM and the IC50 was over 251 µM.

Regarding `CC(=O)c1cc(S(=O)(=O)c2ccc(O)c(C(C)=O)c2)ccc1O`, the EC50 was over 200 µM and the IC50 amounted to 42.7 µM.

On to `O=[N+]([O-])c1ccc(C(Cl)C(Cl)c2ccc(C(Cl)C(Cl)c3ccc([N+](=O)[O-])cc3[N+](=O)[O-])cc2)c([N+](=O)[O-])c1` (stereo unspecified), for which the EC50 is over 12 µM and the IC50 came out at 5.13 µM. For `Cc1cc(S(=O)(=O)Nc2n[nH]c(=O)n2-c2ccccc2)c(S)cc1Cl` the same measures were 155 µM and over 200 µM. The matching figures for `CO/C(N)=C(\C#N)N=Cc1ccc2ccccc2c1`: over 200 µM and 37.2 µM. `C[C@@H]1Cc2c(-c3cc(-c4cc(-c5c(O)cc(O)c6c5C[C@@H](C)N[C@@H]6C)c5ccccc5c4O)c(O)c4ccccc34)c(O)cc(O)c2[C@@H](C)N1`: the EC50 is 115 µM and the IC50 was over 200 µM. In the case of `Cc1ccc(-c2cnc(NC3OC(COC(=O)c4ccccc4)C(OC(=O)c4ccccc4)C(OC(=O)c4ccccc4)C3OC(=O)c3ccccc3)s2)cc1` (stereo unspecified), the EC50 is over 200 µM and the IC50 turned out to be 13.8 µM.

With `CCCC[C@@H](C)/C=C1\CN2CCC[C@H]2[C@@](C)(O)[C@@H]1O`, the EC50 was over 200 µM and the IC50 amounted to 75.9 µM. For `Cc1cc(Cl)ccc1NC(=O)CC1SC(=NC(=O)c2ccccc2Cl)NC1=O` (stereo unspecified), the EC50 is over 16.6 µM and the IC50 was over 16.6 µM. As for `COC(=O)C1CCCN1C(=O)OC(C)(C)C` (stereo unspecified), the EC50 is 57.5 µM and the IC50 was over 200 µM. For the compound `O=C1O/C(=C(/Cl)c2c3ccccc3cc3ccccc23)c2ccccc21`, the EC50 is over 200 µM and the IC50 is 10.2 µM. For `CCN(CC)c1ncnc2c1ncn2CCNC(CO)(CO)CO`, the EC50 was over 200 µM and the IC50 was over 200 µM. In the case of `Brc1ccc2c(-c3nc(-c4c[nH]c5ccccc45)cs3)c[nH]c2c1`, the EC50 was over 100 µM and the IC50 was 6.46 µM.

Consider `CC(=O)C1=C(O)CCC1=O`, for which the EC50 was over 200 µM and the IC50 was over 200 µM. Take `CC(=O)c1c2c(cc3c1CC1(Cc4cc5c(cc4C1)CCCC5)C3)CCCC2`: the EC50 was over 200 µM and the IC50 is 34.7 µM. Turning to `CCCc1cc(=O)oc2c3c(cc(OC(C)C)c12)O[C@H](C)[C@@H](C)C3=O`, the EC50 is 77.6 µM and the IC50 stood at 120 µM.

`CC1=Nc2ccccc2C12C(c1ccccc1)CC(=O)N1c3ccccc3CC12` (stereo unspecified): the EC50 was over 33.9 µM and the IC50 was over 33.9 µM. `CC(=O)Nc1ccc(S(=O)(=O)[N-]C2C(=O)c3ccccc3C(=O)C2[n+]2ccccc2)cc1` (stereo unspecified): the EC50 is over 200 µM and the IC50 came to 37.2 µM. The matching figures for `Cn1c2ccccc2n2c(=O)c3c(c(C#N)c12)CCCC3`: over 7.24 µM and over 7.24 µM. The matching figures for `C[CH2][Sn]([CH2]C)([O]C(=O)C(OC(C)=O)c1ccccc1)[O]C(=O)C(OC(C)=O)c1ccccc1` (stereo unspecified): over 229 µM and 2.69 µM.

For `Nc1[nH][nH]c(=O)c1N=O`, the EC50 is over 200 µM and the IC50 is over 200 µM.

Consider `CC(=O)C1(O)C(=[N+]=[N-])C(=O)Nc2ccccc21` (stereo unspecified), for which the EC50 was over 200 µM and the IC50 worked out at 66.1 µM.

Regarding `COc1cc(C2SC(N)=Nc3c2c(C)nn3C(=O)c2ccccc2O)cc(OC)c1OC` (stereo unspecified), the EC50 was over 20 µM and the IC50 was found to be 0.457 µM.

On to `CCN(CC)CCOC(=O)C1(CCC(C)C)CCCCC1`, for which the EC50 is over 200 µM and the IC50 stood at 123 µM. The matching figures for `CN1CCN(C(=S)N(C(=O)c2ccco2)c2ccccc2)CC1`: over 759 µM and over 759 µM. For `O=c1[nH]c(Cc2ccccc2)nc2c1sc1nc3ccccc3n12` the same measures were over 200 µM and over 200 µM.

In the case of `CC1(C)COC(c2cc3c(cc2Br)OCO3)=N1`, the EC50 was over 209 µM and the IC50 was over 209 µM. Turning to `C1=C(c2ccccc2)NC2=N[C@H]3CCCC[C@@H]3N2C1c1ccccc1` (stereo partly specified), the EC50 was over 126 µM and the IC50 is 8.13 µM. With `COC(=O)/C=C/C=C/c1ccc2c(c1OC)C(=O)c1ccccc1C2=O`, the result was inactive. With `CCOC(=O)C(NC(=O)c1cccc(Cl)c1)(N1CCN(c2cc3c(cc2F)c(=O)c(C(=O)O)cn3CC)CC1)C(F)(F)F` (stereo unspecified), the EC50 was over 200 µM and the IC50 amounted to 0.339 µM.

On to `O=C1C(c2ccccc2)=C(O)c2cccc3cccc1c23`, for which the EC50 was over 912 µM and the IC50 came out at 85.1 µM. For `OC1CSCCCSCC(O)CSCCCSC1` (stereo unspecified) the same measures were over 759 µM and 389 µM.

As to `CCOC1(OCC)N=C(N)C2(C#N)C3(C(=O)N(C(C)C)N=C3C)C12C#N` (stereo unspecified), the EC50 was over 200 µM and the IC50 is 166 µM.

For the compound `O=C(CN1CCCCC1)c1ccc2c(c1)Cc1cc(C(=O)CN3CCCCC3)ccc1O2`, the EC50 is over 70.8 µM and the half-maximal inhibitory concentration (IC50) was 33.1 µM. In the case of `COC(=O)/C=C/CCC#Cc1ccccc1C#CCC/C=C/C(=O)OC`, the EC50 was over 200 µM and the IC50 turned out to be 2.82 µM. Consider `Cc1nc(N)nc(N)c1CCCc1ccccc1`, for which the result was inactive. With `COc1ccc2c(c1)OCC1=C2Oc2ccccc2C1`, the EC50 is over 200 µM and the IC50 worked out at 26.9 µM. The matching figures for `CC(C)(C)OC(=O)c1cccnc1/C=N/O`: over 589 µM and 186 µM.

Consider `O=S(=O)(O)CCCO`, for which the EC50 was over 200 µM and the IC50 is over 200 µM. As to `O=C(/C=C/c1ccccc1)CCN1CCCC1`, the EC50 is over 200 µM and the IC50 came out at 8.13 µM.

For `Clc1cccc(Cl)c1Nc1ccccc1Cc1nc2ccccc2[nH]1`, the EC50 was over 200 µM and the IC50 is 75.9 µM. The matching figures for `Cc1nnc2sc(Cl)nn12`: over 200 µM and 6.17 µM. For `CCOC(CN(C)C(=O)Nc1ccc(Cl)c(Cl)c1)OCC` the same measures were over 200 µM and 14.8 µM.

As for `CC(=O)OC12CCCCC1C1(CCCC1)NC2=O` (stereo unspecified), the outcome was inactive.

As to `N#CCC(=O)N/N=C1/C(=O)N(c2ccc(Cl)cc2)C(=O)C(=O)C1c1nc2ccccc2s1` (stereo unspecified), the result was inactive.

`O=C1c2ccccc2C(=O)c2nc(-c3ccccc3)c(-c3ccccc3)nc21`: the outcome was inactive. With `CC1(C)CC(/C=C2/OC(=O)c3ccccc32)=C(C#N)C(=O)O1`, the EC50 is over 33.9 µM and the IC50 was over 33.9 µM. As to `Cc1ccccc1NC(=O)NC(Oc1ccccc1)(C(F)(F)F)C(F)(F)F`, the EC50 was over 200 µM and the IC50 is over 200 µM.

In the case of `O=C(c1nc2ccccc2[nH]c1=O)C(O)c1ccco1` (stereo unspecified), the EC50 was over 794 µM and the IC50 is 380 µM. The matching figures for `Cc1ccc(NCC(=O)N2CC(=O)Nc3ccccc32)c(C)c1`: over 17 µM and over 17 µM. The matching figures for `CSc1ccc(NC(=S)NN(C)C)cc1`: over 200 µM and 93.3 µM.

As for `COc1ccc(NC(=S)c2ccoc2C)cc1CC(=O)OC(C)C`, the 50% effective concentration (EC50) is 0.174 µM and the IC50 stood at 1.51 µM.

In the case of `N#Cc1ccccc1NC(=O)C(=O)c1c(O)c2ccccc2oc1=O`, the EC50 is over 741 µM and the IC50 is over 741 µM. `CC(=O)N1c2ccccc2C2=NN=C(N(C)C)SC21` (stereo unspecified): the outcome was inactive.

Consider `S=c1nc(-c2ccnc(-c3nc(=S)[nH][nH]3)c2)[nH][nH]1`, for which the EC50 is over 25.7 µM and the IC50 was over 25.7 µM. With `CSc1n[n+](C)cc(N)c1N`, the EC50 is over 200 µM and the IC50 was determined as 28.8 µM.

Turning to `O=C(NC12CC3CC(CC(C3)C1)C2)C(=O)c1c[nH]c2ccc(Cl)cc12`, the result was inactive. Take `C/C=C/C=C/c1cc2cc3c(c(O)c2c(=O)[nH]1)C1(CC3)C(O)=c2c(=O)c3c(=O)cc(OC)c(=O)c=3c(=O)c2=C1O` (stereo unspecified): the EC50 is over 200 µM and the IC50 stood at 5.89 µM. In the case of `Cc1c2ccccc2nc(CSc2n[nH]c(=S)s2)[n+]1[O-]`, the EC50 was over 200 µM and the IC50 is over 200 µM. With `COC1/C=C/OC2(C)Oc3c(C)c(O)c4c(O)c(c(/C=N/N5CC(C)N(C(=O)c6ccccc6)C(C)C5)c(O)c4c3C2=O)NC(=O)C(C)=C/C=C/C(C)C(O)C(C)C(O)C(C)C(OC(C)=O)C1C` (stereo unspecified), the EC50 was over 200 µM and the concentration for half-maximal inhibition (IC50) came to 6.46 µM. For `Cc1cccc(N(CCC#N)S(=O)(=O)c2ccccc2)c1` the same measures were over 200 µM and 110 µM. For `Cc1cc(O)oc(=O)c1`, the EC50 is over 2000 µM and the IC50 is over 2000 µM. For `Cc1ccc2c(c1)C=CC1(O2)N(c2ccccc2)C(=S)OC1(C)C` (stereo unspecified), the EC50 was over 200 µM and the IC50 was determined as 22.4 µM. In the case of `CC1OC2CC(=O)OC2C2=C1C(=O)c1c(O)cccc1C2=O` (stereo unspecified), the EC50 was over 2 µM and the IC50 was found to be 0.0282 µM. For `O=C(C(=Cc1ccccc1)C(=O)c1ccccc1)c1ccccc1` the same measures were over 43.7 µM and 14.5 µM.

As for `CCOP(=S)(OCC)SC(C)(C)C`, the EC50 was over 107 µM and the IC50 was over 107 µM.

Regarding `CC(=O)OC1CC2C(C)(CCC3C2(C)CCC2(C)C4CC(C)(C)CCC4(C)CCC32C)C1C` (stereo unspecified), the EC50 was over 200 µM and the IC50 came out at 145 µM. For `O=C(CCl)Nc1ccc(SSc2ccc(NC(=O)CCl)cc2)cc1` the same measures were over 2 µM and 1.35 µM. The matching figures for `O=C(NNC(=O)c1ccccc1S)c1ccccc1S`: 4.17 µM and 14.5 µM.

In the case of `CC(=O)NNC(=S)/N=C\c1c(O)c2ccccc2oc1=O`, the outcome was inactive. For the compound `Cc1ccc(S(=O)(=O)NNC2Oc3cc4c(cc3C(c3ccccc3O)C2C)OCO4)cc1` (stereo unspecified), the EC50 is over 200 µM and the IC50 stood at 26.3 µM.

The EC50 is the midpoint of the concentration-response curve. By IC50 is commonly meant the midpoint of a concentration-inhibition curve. The low end stands for higher potency, the high end for lower potency.
